What all share (assay type): cell-based
In one data set the target is T1, ABCB1 (Homo sapiens, UniProt P08183).
T1 construct: ABCB1-overexpressing A2780/ADR (30,000 cells/well); host or cells: A2780/ADR
Briefly: calcein AM fluorescence accumulation assay, ABCB1-overexpressing A2780/ADR cells. The conditions noted are these: for activity against ABCB1 in preliminary screening: screened at 10 µM, active = at least 20% (+SEM) of effect of 10 µM compound 2. How it is done: (§1) Compounds 16–25 were screened at 10 µM in calcein AM (ABCB1 and ABCC1) as well as pheophorbide A (ABCG2) fluorescence accumulation assays using either ABCB1-overexpressing A2780/ADR, ABCC1-overexpressing H69AR, or ABCG2-overexpressing MDCK II BCRP cells, respectively, as reported earlier, [43], [45], [67], [101]. Calcein AM and pheophorbide A are substrates of ABCB1 and ABCC1 as well as ABCG2, respectively, which passively diffuse into the used cells and become extruded by the corresponding ABC transporter. Inhibition of the respective transporter results in the accumulation of these substrates. Calcein AM is subsequently cleaved by intracellular esterases to the fluorescent calcein, while pheophorbide A is already fluorescent. Intracellular fluorescence was determined via microplate reader (calcein AM; ABCB1 and ABCC1) and flow cytometry (pheophorbide A; ABCG2), respectively. Compounds 2 (Fig. 1) and 26–27 (Fig. 5) were used as reference inhibitors against ABCB1, ABCC1, and ABCG2, respectively, as reported before, [101]. Fig. 7 provides the screening results for ABCB1 (A), ABCC1 (B), and ABCG2 (C).
(§2) The ABCB1-overexpressing A2780/ADR cells were delivered by European Collection of Animal Cell Culture (ECACC, no. 93112520) and cultivated using RPMI-1640 medium (PAN-Biotech GmbH, Aidenbach, Germany) complemented with fetal bovine serum (FCS; 10%; PAN-Biotech GmbH, Aidenbach, Germany), streptomycin (50 µg/µL; PAN-Biotech GmbH, Aidenbach, Germany), penicillin G (50 U/mL; PAN-Biotech GmbH, Aidenbach, Germany), as well as L-glutamine (2 mM; PAN-Biotech GmbH, Aidenbach, Germany). The ABCC1-overexpressing H69AR cells were provided by American Type Culture Collection (ATCC CRL-11351), which were cultured with RPMI-1640 medium to which FCS (20%), streptomycin (50 µg/µL), penicillin G (50 U/mL), as well as L-glutamine (2 mM) were added. Dr. A. Schinkel (The Netherlands Cancer Institute, Amsterdam, The Netherlands) generously provided the ABCG2-overexpressing MDCK II BCRP cells, which were cultivated in Dulbecco's modified eagle medium (DMEM; Sigma Life Science, Steinheim, Germany) complemented with FCS (10%), streptomycin (50 µg/µL), penicillin G (50 U/mL), as well as L-glutamine (2 mM). The cell lines were stored in a mixture of 90% cell culture medium and 10% DMSO under liquid nitrogen, while cultivation was performed at 37 °C under 5% CO2-humidified atmosphere. After a confluence of 90% was reached, the cells were harvested using a 0.05%/0.02% trypsin-EDTA solution (PAN-Biotech GmbH, Aidenbach, Germany). […]
(§3) The inhibitory activity against ABCB1 and ABCC1 was evaluated in a calcein AM assay as reported earlier, [67], [101]. […] The incubation period at 37 °C under 5% CO2-humidified atmosphere lasted 30 min before 20 µL of a 3.125 µM calcein AM was added to each well, subsequently followed by measurement of fluorescence increase at an excitation wavelength of 485 nm and an emission wave length of 520 nm in 60 sec intervals for 1 h in either POLARstar and FLUOstar Optima microplate readers (BMG Labtech, software versions 2.00R2/2.20 and 4.11-0; Offenburg, Germany).

The next data set concerns the target T2, ABCC1 (Homo sapiens, UniProt P33527).
T2 construct: ABCC1-overexpressing H69AR (60,000 cells/well) cells were added; host or cells: H69AR
Briefly: calcein AM fluorescence accumulation assay, ABCC1-overexpressing H69AR cells. The conditions noted are these: for activity against ABCC1 in preliminary screening: screened at 10 µM, active = at least 20% (+SEM) of effect of 10 µM compound 26. As to the method:
as §1
as §2, with “mM).” for “mM). The cell lines were stored in a mixture of 90% cell culture medium and 10% DMSO under liquid nitrogen, while cultivation was performed at 37 °C under 5% CO2-humidified atmosphere. After a confluence of 90% was reached, the cells were harvested using a 0.05%/0.02% trypsin-EDTA solution (PAN-Biotech GmbH, Aidenbach, Germany).”
as §3

The next data set concerns the target T3, ABCG2 (Homo sapiens, UniProt Q9UNQ0).
T3 construct: host or cells: MDCK II BCRP
T3 sequence (Q9UNQ0 1-655): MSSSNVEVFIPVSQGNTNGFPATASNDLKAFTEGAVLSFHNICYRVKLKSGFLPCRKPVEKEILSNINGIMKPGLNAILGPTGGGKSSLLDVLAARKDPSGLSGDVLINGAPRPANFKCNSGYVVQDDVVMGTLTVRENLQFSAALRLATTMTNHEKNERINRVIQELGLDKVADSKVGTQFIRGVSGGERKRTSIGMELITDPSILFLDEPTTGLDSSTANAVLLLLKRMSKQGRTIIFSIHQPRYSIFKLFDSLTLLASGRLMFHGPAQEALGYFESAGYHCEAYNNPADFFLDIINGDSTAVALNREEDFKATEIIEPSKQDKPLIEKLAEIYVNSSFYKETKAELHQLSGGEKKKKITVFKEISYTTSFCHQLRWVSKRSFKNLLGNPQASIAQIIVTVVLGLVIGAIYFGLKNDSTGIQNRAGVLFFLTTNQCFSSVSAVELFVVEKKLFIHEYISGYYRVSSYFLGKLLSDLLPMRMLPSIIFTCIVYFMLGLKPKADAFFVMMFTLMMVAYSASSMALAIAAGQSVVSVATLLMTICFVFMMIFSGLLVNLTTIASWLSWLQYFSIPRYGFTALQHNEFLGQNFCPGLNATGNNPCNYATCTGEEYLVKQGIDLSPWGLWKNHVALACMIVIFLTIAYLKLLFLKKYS
Briefly: pheophorbide A fluorescence accumulation assay, ABCG2-overexpressing MDCK II BCRP cells. How it is done: as §1, with “Fig. 7 provides the screening results for ABCB1 (A), ABCC1 (B), and ABCG2 (C).” left out
The inhibitory activity against ABCG2 was evaluated in a pheophorbide A assay as reported earlier, [67]. […] The effect values of compounds 16–25 were measured via flow cytometry [Guava easyCyte^TM HT, (Merck Millipore, Billerica, MA, USA; excitation: 488 nm; emission: 695/50 nm)] and compared to the effect value of 10 µM of compound 27.

One may read the IC50 as the midpoint of a concentration-inhibition curve.

The structures appear in SMILES notation.

T2 sequence (P33527 whole entry): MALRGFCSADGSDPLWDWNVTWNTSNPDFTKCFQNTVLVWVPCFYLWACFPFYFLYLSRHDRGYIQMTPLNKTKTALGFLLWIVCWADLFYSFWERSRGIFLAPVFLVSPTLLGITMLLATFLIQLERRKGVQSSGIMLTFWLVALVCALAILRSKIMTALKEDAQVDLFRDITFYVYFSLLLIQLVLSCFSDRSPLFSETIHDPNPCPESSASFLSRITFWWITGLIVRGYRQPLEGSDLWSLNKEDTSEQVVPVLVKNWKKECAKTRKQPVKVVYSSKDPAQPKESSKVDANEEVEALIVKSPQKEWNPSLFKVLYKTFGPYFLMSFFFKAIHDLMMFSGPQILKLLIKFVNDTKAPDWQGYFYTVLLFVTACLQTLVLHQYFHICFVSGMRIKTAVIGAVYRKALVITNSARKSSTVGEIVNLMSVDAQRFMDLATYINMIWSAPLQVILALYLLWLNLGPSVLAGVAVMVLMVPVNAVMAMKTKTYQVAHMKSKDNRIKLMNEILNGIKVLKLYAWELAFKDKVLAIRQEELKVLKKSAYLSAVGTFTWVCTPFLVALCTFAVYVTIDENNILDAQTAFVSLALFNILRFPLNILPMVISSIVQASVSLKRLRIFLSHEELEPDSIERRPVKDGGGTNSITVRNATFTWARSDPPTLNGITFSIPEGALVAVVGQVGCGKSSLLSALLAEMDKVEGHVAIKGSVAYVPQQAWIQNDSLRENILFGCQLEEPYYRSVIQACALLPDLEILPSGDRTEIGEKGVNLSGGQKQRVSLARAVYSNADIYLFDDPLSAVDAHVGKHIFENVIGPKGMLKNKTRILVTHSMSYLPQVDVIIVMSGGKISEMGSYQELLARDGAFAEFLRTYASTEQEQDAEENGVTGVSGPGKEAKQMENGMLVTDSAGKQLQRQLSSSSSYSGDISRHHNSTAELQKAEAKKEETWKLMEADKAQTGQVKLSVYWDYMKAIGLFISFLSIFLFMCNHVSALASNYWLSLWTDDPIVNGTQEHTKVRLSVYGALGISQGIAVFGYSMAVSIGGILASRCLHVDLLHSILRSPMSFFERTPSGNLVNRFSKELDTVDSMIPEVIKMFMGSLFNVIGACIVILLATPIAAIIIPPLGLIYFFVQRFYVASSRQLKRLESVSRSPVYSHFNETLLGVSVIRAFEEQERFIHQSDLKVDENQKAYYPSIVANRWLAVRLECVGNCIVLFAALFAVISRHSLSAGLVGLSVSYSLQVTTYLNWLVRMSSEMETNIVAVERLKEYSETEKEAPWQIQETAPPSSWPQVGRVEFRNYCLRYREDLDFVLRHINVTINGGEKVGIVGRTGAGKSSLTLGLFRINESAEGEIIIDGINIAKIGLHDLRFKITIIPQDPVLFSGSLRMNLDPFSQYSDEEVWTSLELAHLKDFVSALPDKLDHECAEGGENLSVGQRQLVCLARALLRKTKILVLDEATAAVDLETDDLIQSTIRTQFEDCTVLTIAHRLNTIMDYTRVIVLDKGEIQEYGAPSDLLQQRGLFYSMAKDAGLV
T1 sequence (P08183 whole entry): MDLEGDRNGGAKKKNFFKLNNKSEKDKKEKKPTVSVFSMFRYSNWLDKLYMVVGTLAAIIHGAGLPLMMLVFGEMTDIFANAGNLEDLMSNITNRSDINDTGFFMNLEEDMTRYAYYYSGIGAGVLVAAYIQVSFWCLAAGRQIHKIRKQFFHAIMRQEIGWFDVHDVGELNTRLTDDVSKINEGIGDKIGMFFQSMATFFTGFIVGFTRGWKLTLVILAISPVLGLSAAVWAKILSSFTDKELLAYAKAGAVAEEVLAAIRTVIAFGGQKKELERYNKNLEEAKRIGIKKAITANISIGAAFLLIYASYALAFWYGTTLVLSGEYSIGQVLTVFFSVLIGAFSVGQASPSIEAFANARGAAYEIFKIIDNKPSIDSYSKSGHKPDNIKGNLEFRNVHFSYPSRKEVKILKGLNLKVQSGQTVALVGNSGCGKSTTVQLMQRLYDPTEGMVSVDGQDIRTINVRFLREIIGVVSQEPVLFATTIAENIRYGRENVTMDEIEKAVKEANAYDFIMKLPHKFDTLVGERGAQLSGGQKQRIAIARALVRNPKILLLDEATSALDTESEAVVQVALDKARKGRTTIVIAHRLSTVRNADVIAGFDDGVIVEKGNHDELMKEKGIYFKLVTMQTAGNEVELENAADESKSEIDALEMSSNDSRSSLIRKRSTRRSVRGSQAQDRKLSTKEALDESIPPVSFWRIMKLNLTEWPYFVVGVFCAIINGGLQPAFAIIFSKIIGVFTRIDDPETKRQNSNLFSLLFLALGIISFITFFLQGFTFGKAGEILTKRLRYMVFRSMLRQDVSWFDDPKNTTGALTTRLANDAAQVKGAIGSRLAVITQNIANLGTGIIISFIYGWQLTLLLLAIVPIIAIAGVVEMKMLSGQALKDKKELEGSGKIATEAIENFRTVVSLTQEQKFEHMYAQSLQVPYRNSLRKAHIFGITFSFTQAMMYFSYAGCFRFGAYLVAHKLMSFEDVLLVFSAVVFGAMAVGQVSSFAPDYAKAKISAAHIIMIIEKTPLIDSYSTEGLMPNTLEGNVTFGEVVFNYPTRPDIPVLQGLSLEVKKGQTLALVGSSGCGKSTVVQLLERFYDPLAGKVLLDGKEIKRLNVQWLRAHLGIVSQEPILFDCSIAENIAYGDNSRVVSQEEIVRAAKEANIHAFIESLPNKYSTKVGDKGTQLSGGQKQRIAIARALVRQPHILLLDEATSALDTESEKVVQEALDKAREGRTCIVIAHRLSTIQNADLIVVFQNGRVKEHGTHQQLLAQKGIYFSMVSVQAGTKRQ

On to `Cc1onc(-c2ccccc2)c1-c1nnc(CN2CCCC2c2ccc3c(c2)OCCCO3)o1` (centres unmarked) [compound 16, 2-((2-(3,4-dihydro-2H-benzo[b][1,4]dioxepin-7-yl)pyrrolidin-1-yl)methyl)-5-(5-methyl-3-phenyl-isoxazol-4-yl)-1,3,4-oxadiazole], for which the “activity against ABCB1 in preliminary screening” value (from here on “activity against ABCB1”) on ABCB1 is recorded as “activities against ABCB1”. Besides, at ABCC1, the “activity against ABCC1 in preliminary screening” value (shortened to “activity against ABCC1”) is listed as “inhibited ABCC1”.

Take `O=C(NC1CCC(OC(=O)c2cncn2-c2ccc(F)cc2)CC1)c1cncn1-c1ccc(F)cc1` (centres unmarked) [compound 17, 4-(1-(4-fluorophenyl)-1H-imidazole-5-carboxamido)cyclohexyl 1-(4-fluorophenyl)-1H-imidazole-5-carboxylate]: the “activity against ABCB1” value on ABCB1 was “activities against ABCB1”.

Turning to `O=C(CN1CCN(C(=O)Cn2cnc3scc(-c4cccs4)c3c2=O)CC1)N1CCCCCC1` [compound 18, 3-(2-(4-(2-(azepan-1-yl)-2-oxoethyl)piperazin-1-yl)-2-oxoethyl)-5-(thiophen-2-yl)thieno[2,3-d]pyrimidin-4(3H)-one], the “activity against ABCC1” value on ABCC1 is recorded as “inhibited ABCC1”.

Consider `O=C(c1cccn1-c1nnc(N2CCCC2)s1)N1CCN(Cc2ccc3c(c2)OCO3)CC1` [compound 19, (4-(benzo[d][1,3]dioxol-5-ylmethyl)piperazin-1-yl)(1-(5-(pyrrolidin-1-yl)-1,3,4-thiadiazol-2-yl)-1H-pyrrol-2-yl)methanone], for which the “activity against ABCB1” value on ABCB1 is recorded as “activities against ABCB1”.

With `C1=CC2=NC3N4CN(CCCN5CCOCC5)CNC4=NC(c4ccccn4)N3C2C=C1` (centres unmarked) [compound 20, 4-(3-(6-(pyridin-2-yl)-4,6,7a,12a-tetrahydro-1H-benzo[4,5]imidazo[1,2-a][1,3,5]triazino[1,2-c][1,3,5]triazin-2(3H)-yl)propyl)morpholine], the “activity against ABCB1” value at ABCB1 is “did inhibit neither of the evaluated transporters”. For the same compound, at ABCG2 (screened at 10 µM, active = at least 20% (+SEM) of effect of 10 µM compound 27), the “activity against ABCG2 in preliminary screening” value is listed as “did inhibit neither of the evaluated transporters”. In addition, the “activity against ABCC1” value on ABCC1 is listed as “did inhibit neither of the evaluated transporters”.

Consider `Cc1nc(N2CCN(C(=O)C(c3ccccc3)c3ccccc3)CC2)cc(-n2ccnc2)n1` [compound 23, 1-(4-(6-(1H-imidazol-1-yl)-2-methylpyrimidin-4-yl)piperazin-1-yl)-2,2-diphenylethan-1-one], for which the IC50 on ABCB1 (calcein AM assay, A2780/ADR cells, 100% = 10 µM reference inhibitor 2, read-out: IC50 against ABCB1) is 4.01 µM; at ABCG2 (pheophorbide A assay, MDCK II BCRP cells, 100% = 10 µM reference inhibitor 27, read-out: IC50 against ABCG2), 9.27 µM; on ABCC1 (calcein AM assay, H69AR cells, 100% = 10 µM reference inhibitor 26, read-out: IC50 against ABCC1) it was 14.8 µM.

(Values after publication PMC8193046, “Scaffold fragmentation and substructure hopping reveal potential, robustness, and limits of computer-aided pattern analysis (C@PA)” (Computational and Structural Biotechnology Journal, 2021).)
